# Reference: patent publication US9023789B2, “Amylin analogs and pharmaceutical compositions thereof” (Novo Nordisk A/S, priority 2012, dated 2015)
# Numbered stars: 1 amine (or outer) side, 2 acyl side, 3 side chain; on linkers, the order of the positions; unused ones are H or OH. Bridge positions count the residues as written; N and C are the ends. Side chains are listed from the residue outwards. Peptide text beside a SMILES is read from it. * marks the point of attachment. C20 diacid = O=C(O)CCCCCCCCCCCCCCCCCCC(=O)*; γGlu = O=C(O)[C@H](CCC(=O)[*:2])N[*:1]; AEEA = NCCOCCOCC(=O)O
# Columns and labels:
# [1] = molecular target: T1, human calcitonin (a) receptor in BHK570 cells (Homo sapiens, UniProt P30988); assay: ASSAY (II)a functional assay, human calcitonin receptor (CRE luciferase); assay type: cell-based; conditions: read-out: hCTR funct. EC50
# T1 construct: expressed in transfected cells
# T1 sequence (P30988 25-474): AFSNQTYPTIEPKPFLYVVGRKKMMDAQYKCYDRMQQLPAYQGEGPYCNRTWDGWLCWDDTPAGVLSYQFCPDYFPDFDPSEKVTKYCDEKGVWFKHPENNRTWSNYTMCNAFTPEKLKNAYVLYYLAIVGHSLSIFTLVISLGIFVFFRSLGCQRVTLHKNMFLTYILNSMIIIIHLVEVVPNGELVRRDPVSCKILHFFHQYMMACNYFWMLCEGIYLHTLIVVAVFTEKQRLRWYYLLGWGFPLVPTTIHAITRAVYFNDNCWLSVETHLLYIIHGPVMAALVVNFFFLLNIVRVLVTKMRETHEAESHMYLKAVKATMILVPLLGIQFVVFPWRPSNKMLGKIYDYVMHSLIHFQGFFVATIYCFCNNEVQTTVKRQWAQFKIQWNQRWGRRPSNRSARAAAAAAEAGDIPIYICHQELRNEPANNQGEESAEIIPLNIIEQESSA
# Summary of the method: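 Ligand exposure 3 h at 37 °C, 5% CO2 in DMEM with 10% FBS, 10 mM Hepes pH 7.4. cAMP-driven luciferase read by luminescence after 30 min LucLite at room temperature.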
# [2] = ASSAY (III) ThT fibrillation assay for physical stability; assay type: physicochemical
# Summary of the method: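 Formulations with 1 μM ThT, pH adjusted as required, incubated at 37 °C with 960 rpm orbital shaking; fluorescence (ex 444/em 485 nm) read every 20 min. Fibrillation reported as mean ThT fluorescence ± SD of 4–8 replicates at time points; polypeptide concentration measured by reverse-phase HPLC before and after, post-centrifugation.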
# [3] = molecular target: T2, human amylin receptor (membranes from Amylin 3(a)/CRE-luc cells) (Homo sapiens, UniProt O60896+P30988); assay: ASSAY (V) binding to the human amylin receptor (SPA, 125I-rat amylin); conditions: for IC50: Table 4, read-out: hAmylin-R bind IC50;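 for all read-outs here: competition binding of cell membranes (35 ng/µL) mixed with SPA beads in 384-well plates at 40 µL total volume, read by scintillation counting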
# T2 construct: expressed in transfected cells
# T2 sequence (P30988 25-474): T1 sequence (P30988 25-474)
# T2 sequence (O60896 24-148 partner): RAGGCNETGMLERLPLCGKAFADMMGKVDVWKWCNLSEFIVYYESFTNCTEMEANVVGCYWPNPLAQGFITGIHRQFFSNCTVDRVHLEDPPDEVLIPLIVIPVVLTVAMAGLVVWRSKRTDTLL
# [4] = molecular target: T3, human calcitonin receptor (Homo sapiens, UniProt P30988); assay: ASSAY (VII) binding to the human calcitonin receptor (SPA, 125I-Calcitonin); conditions: read-out: hCTR bind IC50;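 note: cell membranes (35 ng/µL) combined with SPA beads in 40 µL of pH 7.4 Hepes buffer, 384-well format, signal counted on a TopCounter instrument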
# T3 construct: expressed in transfected cells
# T3 sequence (P30988 25-474): T1 sequence (P30988 25-474)
# [5] = Table 5, selectivity, hCTR bind IC50 / hAmylin-R bind IC50
# [6] = Table 5a, selectivity, hCTR bind IC50 / hAmylin-R bind IC50
# [7] = Table 5b, selectivity, hCTR bind IC50 / hAmylin-R bind IC50
# [8] = Table 5c, selectivity, hCTR bind IC50 / hAmylin-R bind IC50
# [9] = Table 7, human binding selectivity, included for comparison
# [10] = Table 7a (preferred compounds), human binding selectivity, included for comparison
# [11] = ratio of human calcitonin receptor binding IC50 to human amylin receptor binding IC50
EC50 [1],ThT pH 4.0 lag time (h) [2],IC50 [3],"Ratio hCT/hAmylin binding [3, 5]","Ratio hCT/hAmylin binding [3, 6]","Ratio hCT/hAmylin binding [3, 7]","Ratio hCT/hAmylin binding [3, 8]","Ratio hCT/hAmylin binding [3, 9]","Ratio hCT/hAmylin binding [3, 10]","Ratio hCT/hAmylin binding [3, 11]",IC50 [4],SMILES
4.35 nM,7 h,0.427 nM,49.9,49.9,49.9,49.9,49.9,49.9,49.9,21.3 nM,CC[C@H](C)[C@H](NC(=O)[C@H](C)NC(=O)CNC(=O)[C@H](Cc1ccccc1)NC(=O)[C@H](CC(N)=O)NC(=O)[C@@H]1CCCN1C(=O)[C@H](CO)NC(=O)[C@H](CO)NC(=O)[C@H](Cc1c[nH]cn1)NC(=O)[C@H](CCCNC(=N)N)NC(=O)[C@H](CC(C)C)NC(=O)[C@H](Cc1ccccc1)NC(=O)[C@H](CC(N)=O)NC(=O)[C@H](C)NC(=O)[C@H](CC(C)C)NC(=O)[C@H](CCCNC(=N)N)NC(=O)[C@H](CCC(N)=O)NC(=O)[C@@H](NC(=O)[C@H](C)NC(=O)[C@@H]1CSSC[C@H](NC(=O)[C@@H](N)CCCCNC(=O)COCCOCCNC(=O)CC[C@H](NC(=O)CCCCCCCCCCCCCCCCCCC(=O)O)C(=O)O)C(=O)N[C@@H](CC(N)=O)C(=O)N[C@@H]([C@@H](C)O)C(=O)N[C@@H](C)C(=O)N[C@@H]([C@@H](C)O)C(=O)N1)[C@@H](C)O)C(=O)N1CCC[C@H]1C(=O)N[C@@H](CO)C(=O)N[C@@H](CO)C(=O)N[C@H](C(=O)N[C@@H](CC(N)=O)C(=O)N[C@H](C(=O)NCC(=O)N[C@@H](CO)C(=O)N[C@@H](CC(N)=O)C(=O)N[C@H](C(=O)N[C@@H](Cc1ccc(O)cc1)C(N)=O)[C@@H](C)O)C(C)C)[C@@H](C)O [Example 41]
3.94 nM,21 h,0.79 nM,46.1,46.1,46.1,46.1,46.1,46.1,46.1,36.4 nM,CC[C@H](C)[C@H](NC(=O)[C@H](C)NC(=O)CNC(=O)[C@H](Cc1ccccc1)NC(=O)[C@H](CC(N)=O)NC(=O)[C@@H]1CCCN1C(=O)[C@H](CO)NC(=O)[C@H](CO)NC(=O)[C@H](Cc1c[nH]cn1)NC(=O)[C@H](CCCNC(=N)N)NC(=O)[C@H](CC(C)C)NC(=O)[C@H](Cc1ccccc1)NC(=O)[C@H](CC(N)=O)NC(=O)[C@H](C)NC(=O)[C@H](CC(C)C)NC(=O)[C@H](CCCNC(=N)N)NC(=O)[C@H](CCC(N)=O)NC(=O)[C@@H](NC(=O)[C@H](C)NC(=O)[C@@H]1CSSC[C@H](NC(=O)[C@@H](N)CCCCNC(=O)CC[C@H](NC(=O)CCCCCCCCCCCCCCCCCCC(=O)O)C(=O)O)C(=O)N[C@@H](CC(N)=O)C(=O)N[C@@H]([C@@H](C)O)C(=O)N[C@@H](C)C(=O)N[C@@H]([C@@H](C)O)C(=O)N1)[C@@H](C)O)C(=O)N1CCC[C@H]1C(=O)N[C@@H](CO)C(=O)N[C@@H](CO)C(=O)N[C@H](C(=O)N[C@@H](CC(N)=O)C(=O)N[C@H](C(=O)NCC(=O)N[C@@H](CCCNC(=N)N)C(=O)N[C@@H](CC(N)=O)C(=O)N[C@H](C(=O)N[C@@H](Cc1ccc(O)cc1)C(N)=O)[C@@H](C)O)C(C)C)[C@@H](C)O [Example 79] (H-K([γGlu-C20 diacid])CNTATCATQRLANFLRHSSPNFGAIPSSTNVGRNTY-NH2; disulfide 2-7 (inferred); N-terminus assumed)
2.7 nM,0 h,1.18 nM,27.6,27.6,27.6,27.6,27.6,27.6,27.6,32.5 nM,CC(C)C[C@H](NC(=O)[C@H](CCCNC(=N)N)NC(=O)[C@H](CCC(N)=O)NC(=O)[C@@H](NC(=O)[C@H](C)NC(=O)[C@@H]1CSSC[C@H](NC(=O)[C@@H](N)CCCCNC(=O)CC[C@H](NC(=O)CC[C@H](NC(=O)CCCCCCCCCCCCCCCCCCC(=O)O)C(=O)O)C(=O)O)C(=O)N[C@@H](CC(N)=O)C(=O)N[C@@H]([C@@H](C)O)C(=O)N[C@@H](C)C(=O)N[C@@H]([C@@H](C)O)C(=O)N1)[C@@H](C)O)C(=O)N[C@@H](C)C(=O)N[C@@H](CC(=O)O)C(=O)N[C@@H](Cc1ccccc1)C(=O)N[C@@H](CC(C)C)C(=O)N[C@@H](CCCNC(=N)N)C(=O)N[C@@H](Cc1c[nH]cn1)C(=O)N[C@@H](CO)C(=O)N[C@@H](CO)C(=O)N1CCC[C@H]1C(=O)N[C@@H](CC(N)=O)C(=O)N[C@@H](Cc1ccccc1)C(=O)NCC(=O)N[C@@H](C)C(=O)N1CCC[C@H]1C(=O)N[C@@H](CC(C)C)C(=O)N[C@@H](CO)C(=O)N[C@@H](CO)C(=O)N[C@H](C(=O)N[C@@H](CC(N)=O)C(=O)N[C@H](C(=O)NCC(=O)N[C@@H](CO)C(=O)N[C@@H](CC(=O)O)C(=O)N[C@H](C(=O)N[C@@H](Cc1ccc(O)cc1)C(N)=O)[C@@H](C)O)C(C)C)[C@@H](C)O [Example 1] (H-K([γGlu-γGlu-C20 diacid])CNTATCATQRLADFLRHSSPNFGAPLSSTNVGSDTY-NH2; disulfide 2-7)
0.731 nM,24 h,0.042 nM,51.8,51.8,51.8,51.8,51.8,51.8,51.8,2.18 nM,CC[C@H](C)[C@H](NC(=O)[C@H](C)NC(=O)CNC(=O)[C@H](Cc1ccccc1)NC(=O)[C@H](CC(N)=O)NC(=O)[C@@H]1CCCN1C(=O)[C@H](CO)NC(=O)[C@H](CO)NC(=O)[C@H](Cc1c[nH]cn1)NC(=O)[C@H](CCCNC(=N)N)NC(=O)[C@H](CC(C)C)NC(=O)[C@H](Cc1ccccc1)NC(=O)[C@H](CC(N)=O)NC(=O)[C@H](C)NC(=O)[C@H](CC(C)C)NC(=O)[C@H](CCCNC(=N)N)NC(=O)[C@H](CCC(N)=O)NC(=O)[C@@H](NC(=O)[C@H](C)NC(=O)[C@@H]1CSSC[C@H](NC(=O)[C@@H](N)CCCCNC(=O)COCCOCCNC(=O)CC[C@H](NC(=O)CCCCCCCCCCCCCCCCCCC(=O)O)C(=O)O)C(=O)N[C@@H](CC(N)=O)C(=O)N[C@@H]([C@@H](C)O)C(=O)N[C@@H](C)C(=O)N[C@@H]([C@@H](C)O)C(=O)N1)[C@@H](C)O)C(=O)N1CCC[C@H]1C(=O)N1CCC[C@H]1C(=O)N[C@@H](CO)C(=O)N[C@H](C(=O)N[C@@H](CC(N)=O)C(=O)N[C@H](C(=O)NCC(=O)N1CCC[C@H]1C(=O)N[C@@H](CC(N)=O)C(=O)N[C@H](C(=O)N[C@@H](Cc1ccc(O)cc1)C(N)=O)[C@@H](C)O)C(C)C)[C@@H](C)O [Example 55] (H-K([AEEA-γGlu-C20 diacid])CNTATCATQRLANFLRHSSPNFGAIPPSTNVGPNTY-NH2; disulfide 2-7; N-terminus assumed)
